# Measurements reported in patent US8470829B2 (priority 2004, dated 2013).
# Like-named read-outs stand apart in the source and are kept apart here.
# Experiments:
# castrated rats = details: continuously administered to castrated rats for two weeks; cited from earlier work
# human androgen receptor [1] = target: T1, human androgen receptor (Homo sapiens, UniProt P10275); experiment: Measurement of agonist effect on androgen receptor (reporter gene assay, 11A11B2 cells); format: cell-based; details: compound concentration showing a transcription activity of 5% (0.1 nmol/L DHT = 100%, assay medium alone = 0%), 48 hours
# T1 construct: expressed in transfected cells
# T1 sequence (P10275 1-920): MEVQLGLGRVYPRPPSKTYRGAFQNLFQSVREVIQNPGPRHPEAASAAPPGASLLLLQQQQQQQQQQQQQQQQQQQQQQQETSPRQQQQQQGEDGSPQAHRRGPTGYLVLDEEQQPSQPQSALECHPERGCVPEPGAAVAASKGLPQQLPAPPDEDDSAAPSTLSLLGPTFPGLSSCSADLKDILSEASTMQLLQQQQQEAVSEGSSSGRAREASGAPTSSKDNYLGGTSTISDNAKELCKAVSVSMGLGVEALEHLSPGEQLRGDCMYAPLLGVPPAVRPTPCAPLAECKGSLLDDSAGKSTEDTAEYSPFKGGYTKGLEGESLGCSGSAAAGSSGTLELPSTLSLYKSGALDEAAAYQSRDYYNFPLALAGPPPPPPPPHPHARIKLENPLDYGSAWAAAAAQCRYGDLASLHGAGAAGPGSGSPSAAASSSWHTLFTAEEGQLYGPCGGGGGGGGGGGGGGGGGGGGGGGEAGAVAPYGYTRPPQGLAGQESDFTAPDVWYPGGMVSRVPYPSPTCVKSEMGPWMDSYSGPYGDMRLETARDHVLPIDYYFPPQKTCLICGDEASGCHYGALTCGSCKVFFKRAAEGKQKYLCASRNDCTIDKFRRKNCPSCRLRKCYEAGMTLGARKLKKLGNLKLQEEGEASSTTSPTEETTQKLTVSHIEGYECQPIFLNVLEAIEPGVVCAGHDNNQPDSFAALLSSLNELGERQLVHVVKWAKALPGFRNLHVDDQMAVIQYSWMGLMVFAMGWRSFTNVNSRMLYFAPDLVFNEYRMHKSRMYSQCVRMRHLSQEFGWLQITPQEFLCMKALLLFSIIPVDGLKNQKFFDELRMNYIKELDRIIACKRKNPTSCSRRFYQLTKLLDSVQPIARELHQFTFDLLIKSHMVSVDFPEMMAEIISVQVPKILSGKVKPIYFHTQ
# androgen receptor = androgen receptor (Homo sapiens, UniProt P10275); details: at a concentration of 10 μmol/L; cited from earlier work
# [2] = prostate cancer patients treated with flutamide; cited from earlier work
# human androgen receptor [3] = target: T1, human androgen receptor; experiment: Investigation of antagonist effect on androgen receptor (reporter gene assay, 11A11B2 cells, with DHT); format: cell-based
# [4] = with 0.1 nmol/L DHT, transcription activity rate of Test Example 1 subtracted, 11A11B2 cells, 48 hours, read-out: IC50
Compound,EC5 (human androgen receptor [1]) [µM],IC50 (human androgen receptor [3]; [4]) [nM],IC50 (human androgen receptor [3]) [nM],further results
CC(=O)O[C@]1(C(C)=O)CC[C@H]2[C@@H]3C=C(Cl)C4=CC(=O)CC[C@]4(C)[C@H]3CC[C@@]21C [chlormadinone acetate],–,–,–,weight of the prostate gland (castrated rats): increase
"CC(C)(O)C(=O)Nc1ccc([N+](=O)[O-])c(C(F)(F)F)c1 [Comparative Example 4, hydroxyflutamide]",0.01,–,–,androgen receptor transcription activity (androgen receptor): increase; concentration in the blood [2]: several
CC(=O)O[C@]1(C(C)=O)CC[C@H]2[C@@H]3C=C(Cl)C4=CC(=O)[C@@H]5C[C@@H]5[C@]4(C)[C@H]3CC[C@@]21C [cyproterone acetate],–,–,–,weight of the prostate gland (castrated rats): increase
"CCOC(=O)Nc1cc(N2C(=O)N(c3ccc(C#N)c(C(F)(F)F)c3)C(=O)C2(C)C)ccc1Cl [Example 13, {2-chloro-5-[3-(4-cyano-3-trifluoromethylphenyl)-5,5-dimethyl-2,4-dioxoimidazolidin-1-yl]phenyl}carbamic acid ethyl ester]",>10,200,–,melting point: 155 to 157 °C
"CN(C)CCOC(=O)Nc1ccc(N2C(=S)N(c3ccc(C#N)c(C(F)(F)F)c3)C(=O)C2(C)C)cn1 [Example 58, {5-[3-(4-cyano-3-trifluoromethylphenyl)-5,5-dimethyl-4-oxo-2-thioxoimidazolidin-1-yl]pyridin-2-yl}carbamic acid 2-dimethylaminoethyl ester]",>10,–,500,–
"CN(C)CCOC(=O)Nc1cc(N2C(=O)N(c3ccc(C#N)c(Cl)c3)C(=O)C2(C)C)ccc1Cl [Example 31, {2-chloro-5-[3-(4-cyano-3-chlorophenyl)-5,5-dimethyl-2,4-dioxoimidazolidin-1-yl]phenyl}-carbamic acid 2-dimethylaminoethyl ester]",>10,–,600,–
"CC1(C)C(=O)N(c2ccc(C#N)c(C(F)(F)F)c2)C(=O)N1c1ccc(NC(=O)CN2CCNCC2)c(Cl)c1 [Example 21, N-{2-chloro-4-[3-(4-cyano-3-trifluoromethylphenyl)-5,5-dimethyl-2,4-dioxoimidazolidin-1-yl]-phenyl}-2-piperazin-1-ylacetamide]",>10,500,–,–
"CC(=O)N1CCC(N2C(=S)N(c3ccc(C#N)c(C(F)(F)F)c3)C(=O)C2(C)C)CC1 [Example 4, 4-[3-(1-acetylpiperidin-4-yl)-4,4-dimethyl-5-oxo-2-thioxoimidazolidin-1-yl]-2-trifluoromethylbenzonitrile]",>10,300,–,–
"CC1(C)C(=O)N(c2ccc(C#N)c(Cl)c2)C(=S)N1c1ccc2sc(NC(=O)OCCO)nc2c1 [Example 66, {5-[3-(3-chloro-4-cyanophenyl)-5,5-dimethyl-4-oxo-2-thioxoimidazolidin-1-yl]benzothiazol-2-yl}carbamic acid 2-hydroxyethyl ester]",6,–,100,–
"CC(=O)Nc1nc2cc(N3C(=S)N(c4ccc(C#N)c(Cl)c4)C(=O)C3(C)C)ccc2s1 [Example 16, 4-[3-(2-acetylaminobenzothiazol-5-yl)-4,4-dimethyl-5-oxo-2-thioxoimidazolidin-1-yl]-2-chlorobenzonitrile]",3,–,40,–
